Data reported in US5030427A, “Gallium purification” (Monsanto Company, priority 1988, dated 1991).

Assay: Aqueous solubilities of N-alkylalkano and N-H hydroxamic acids (25° C.)
Type: physicochemical
Source text: It is desirable that the extractant for metals have low solubility in water in order to avoid loss of extractant in aqueous media. In Table 1, the aqueous solubilities of a number of hydroxamic acids are reported.

Row | Structure (SMILES) | SOLUBILITY (25° C.) (aqueous, 25° C.) | aqueous solubility (in words) (aqueous media)
1 | CCCCCCCCCC(=O)N(C)O [N-methyldecanohydroxamic acid] | 5.48 × 10^-4 molarity | –
2 | CCCCCCCCC(=O)N(C)O [N-methylnonanohydroxamic acid] | – | relatively high aqueous solubility
